Target: T1, bovine ubiquitin (Bos taurus, UniProt P0CG53)
T1 construct: native bovine ubiquitin (U6253); purchased Sigma-Aldrich U6253
Test: SPR binding to ubiquitin surface
Conditions: Fig 2J
Description: All injections were performed in a Biacore T200 (GE Healthcare, Chicago, IL) at a flow rate of 20 μl/min in running buffer (20 mM Hepes (pH 7.4), 150 mM NaCl, 5 mM MgCl2, 0.0005% Tween 20) at 25°C. CMD200 and HC1500 sensor chips (Zantec Bioanalytics, Duesseldorf, Germany) were used for the primary and secondary SPR screens and for obtaining SPR sensograms shown in Fig 2I and 2J, respectively. SUMO1 surface in CMD-200 sensor chip and HC1500 sensor chip were generated with immobilization levels 10887 and 19639 resonance units (RU), respectively. Ubiquitin surface in HC1500 sensor chip was generated with 6106 RU. Human SUMO1 and bovine ubiquitin biosensors were prepared by standard amine coupling chemistry as follows: An equal volume of 0.1 M N-hydroxysuccinimide (NHS) and 0.4 M ethyl(dimethylaminopropyl) carbodiimide was injected for 7 min at 5 μl/min over a single flow cell. Following this step, human SUMO1 or bovine ubiquitin (100 μg/ml in pH 4.5 acetate buffer) was injected for 15 min, immediately followed by a 7 min injection of 1M ethanolamine (pH 9). […] RUmax was calculated as 8320/MW ratio, where 8320 is AU of human SUMO1 immobilized onto the chip and MW ratio is the ratio of MW (Da) of SUMO1 to flavonoid. […]

`O=c1c(O)c(-c2ccc(O)c(O)c2)oc2cc(O)ccc12` [Fisetin, 3,3',4',7-tetrahydroxyflavone] was tested, and the “SPR binding to bovine ubiquitin” value was “failed to bind to bovine ubiquitin” and the “SPR binding to bovine ubiquitin” value (listed as fisetin) was “no appreciable binding”.
